{
  "source": "paper PMC7125978",
  "about": "(Bioorganic & Medicinal Chemistry, 2010)",
  "key": {"[1]": {"tested_on": "Respiratory syncytial virus (HeLa)", "assay_type": "cell-based, respiratory syncytial virus (RSV) strain Long", "settings": "relative to ribavirin (1)"}, "HCV (Huh-5–2)": {"tested_on": "HCV (Huh-5–2)", "experiment": "HCV subgenomic replicon luciferase assay in Huh 5-2 cells", "assay_type": "cell-based, hepatitis C virus (HCV)"}, "Punta toro virus (Vero)": {"tested_on": "Punta toro virus (Vero)", "experiment": "microbe, parasite or virus in culture", "assay_type": "cell-based"}, "[2]": {"tested_on": "Influenza A/H3N2 subtype (MDCK)", "assay_type": "cell-based, influenza virus type A (H3N2)"}, "CEM cell extract": {"tested_on": "CEM cell extract", "experiment": "Prodrug conversion in crude cell extracts", "assay_type": "in vitro ADME, human", "settings": "for efficiency of conversion among the prodrugs: similar trend in HeLa and MDCK cell extracts"}, "uninfected cells": {"tested_on": "uninfected cells", "settings": "for Cytotoxicity MCC: minimum cytotoxic concentration, microscopically detectable alteration of cell morphology"}, "several viruses": {"tested_on": "several viruses", "assay_type": "cell-based"}, "Vaccinia virus (HEL)": {"tested_on": "Vaccinia virus (HEL)", "assay_type": "cell-based, vaccinia virus Lederle strain"}, "[3]": {"settings": "cell extract, 37 °C, after 60 min of incubation"}},
  "data": [
    {"smiles": "C[C@H](NP(=O)(OC[C@H]1O[C@@H](n2cnc(C(N)=O)n2)[C@H](O)[C@@H]1O)Oc1cccc2ccccc12)C(=O)OCc1ccccc1", "note": "(stereo partly drawn) [Compound 13, ribavirin-5′-[1-naphthyl(benzoxy-L-alaninyl)] phosphate]", "values": [
      {"measurement": "fold less active than ribavirin, respiratory syncytial virus", "setting": "[1]", "value": "about threefold"},
      {"measurement": "potency relative to ribavirin, HCV subgenomic replicon replication", "setting": "HCV (Huh-5–2)", "value": "equipotent to ribavirin"},
      {"measurement": "EC50", "setting": "Punta toro virus (Vero); Punta Toro virus, Vero, read-out: Antiviral activity EC50, Punta toro virus (Vero)", "value": "> 100", "unit": "µM"},
      {"measurement": "fold lower potency than ribavirin, influenza virus", "setting": "[2]", "value": "~2", "unit": "fold"},
      {"measurement": "conversion of isomer tR 19.3 min to metabolite tR 20.2 min", "setting": "CEM cell extract; cell extract, 37 °C, before second isomer (tR 19.0 min) started to be converted", "value": "≥ 95", "unit": "%"},
      {"measurement": "Cytotoxicity MCC", "setting": "uninfected cells", "value": ">100", "unit": "µM"}
    ]},
    {"smiles": "NC(=O)c1ncn([C@@H]2O[C@H](COP(=O)(N[C@@H](Cc3ccccc3)C(=O)OCc3ccccc3)Oc3cccc4ccccc34)[C@@H](O)[C@H]2O)n1", "note": "(stereo partly drawn) [Compound 14, ribavirin-5’-[1-naphthyl(benzoxy-L-phenylalaninyl)] phosphate]", "values": [
      {"measurement": "antiviral activity, all the viruses tested", "setting": "several viruses", "value": "no or borderline activity"},
      {"measurement": "conversion of both diastereoisomers (not separable) to metabolite tR 20.2 min", "setting": "CEM cell extract; CEM cell extract, 37 °C, within 20 min", "value": 80, "unit": "%"},
      {"measurement": "efficiency of conversion among the prodrugs", "setting": "CEM cell extract; CEM cell extract", "value": "most efficiently converted"},
      {"measurement": "Cytotoxicity MCC", "setting": "uninfected cells", "value": ">100", "unit": "µM"}
    ]},
    {"smiles": "NC(=O)c1ncn([C@@H]2O[C@H](COP(=O)(NCC(=O)OCc3ccccc3)Oc3cccc4ccccc34)[C@@H](O)[C@H]2O)n1", "note": "(stereo partly shown) [Compound 15]", "values": [
      {"measurement": "fold less active than ribavirin, respiratory syncytial virus", "setting": "[1]", "value": "about threefold"},
      {"measurement": "fold superior to ribavirin, vaccinia virus replication", "setting": "Vaccinia virus (HEL)", "value": "3–5 fold"},
      {"measurement": "fold superior to ribavirin, Punto Toro virus replication", "setting": "Punta toro virus (Vero); relative to ribavirin", "value": "3–5 fold"},
      {"measurement": "efficiency of conversion among the prodrugs", "setting": "CEM cell extract; CEM cell extract", "value": "least efficiently converted"},
      {"measurement": "conversion of isomer tR 18.8 min to tR 20.2", "setting": "CEM cell extract; [3]", "value": 10, "unit": "%"},
      {"measurement": "levels of isomer tR 18.5", "setting": "CEM cell extract; [3]", "value": "virtually unaltered"},
      {"measurement": "Cytotoxicity MCC", "setting": "uninfected cells", "value": ">100", "unit": "µM"}
    ]},
    {"smiles": "NC(=O)c1ncn([C@@H]2O[C@H](CO)[C@@H](O)[C@H]2O)n1", "note": "[Ribavirin, 1-β-D-ribofuranosyl-1,2,4-triazole-3-carboxamide, reference compound]", "values": [
      {"measurement": "toxicity to uninfected cells", "setting": "uninfected cells; at 100 μM", "value": "non-toxic"},
      {"measurement": "Cytotoxicity MCC", "setting": "uninfected cells", "value": ">100", "unit": "µM"}
    ]}
  ]
}
